The source of these data is ChEMBL document CHEMBL1129080, “Synthesis, physicochemical properties, and biological evaluation of hydroxypyranones and hydroxypyridinones: novel bidentate ligands for cell-labeling” (J Med Chem, 1996).

SMILES strings stand for the structures.

The first series is described as follows: Compound was tested for their chelating potential (free ligand) determined by distribution coefficient method. It counts as ADME. Conditions: octanol/water.
Consider `CCCCCn1ccc(=O)c(O)c1C`, for which the “mean log D” value is 1.24. With `CCCCCCn1ccc(=O)c(O)c1C`, the “mean log D” value is listed as 1.9.

The same series, now with this note: octanol/water; read-out: mean log D.
On to `COCc1cc(=O)c(O)co1`, for which the logD is -0.62. The same measure, in the same setting: with `Cc1cc(=O)c(O)c(C)o1` the figure was 0.44; with `CCOCc1cc(=O)c(O)co1`, -0.38; with `CCn1cccc(O)c1=O`, 0.2. The same measure, in the same setting: the result for `CCCCn1cccc(O)c1=O` reads 1.18; that for `CCCCc1oc(C)cc(=O)c1O`, 1.92; that for `CCCCOCc1cc(=O)c(O)co1`, 0.78. The same measure, in the same setting: the result for `Cc1occc(=O)c1O` [MALTOL] reads 0.05. In the case of `NCCn1ccc(=O)c(O)c1`, the logD is -0.66. On the same count and under the same terms, with `Oc1cccc2cccnc12` [OXYQUINOLINE] the figure was 1.87. On the same count and under the same terms, the result for `CCCOCc1cc(=O)c(O)co1` reads 0.3; that for `CCc1oc(C)cc(=O)c1O`, 1.07. Still for that read-out and setting: the result for `CCCn1cccc(O)c1=O` reads 0.69. For the compound `CCc1occc(=O)c1O` [E637], the logD was found to be 0.63. As to `Cc1cc(=O)c(O)co1`, the logD is -0.59.

As to `CCCc1oc(C)cc(=O)c1O`, the logD was 1.4. Same read-out and setting: the result for `Cn1cccc(O)c1=O` reads -0.28. Still for that read-out and setting: with `O=c1cccccc1O` [TROPOLONE] the figure was -0.14.

Consider `CCCCn1ccc(=O)c(O)c1C`, for which the logD was 0.71. Still for that read-out and setting: with `O=c1ccocc1O` the figure was -0.92.
